Numbers after ± are expanded uncertainties.
Experiments:
[1] = xn = mol fraction of the nth substance listed; settings: 101 kPa, Liquid
[2] = molar heat capacity at constant pressure; xn = mol fraction of the nth substance listed; settings: 101 kPa, Liquid

CCCC[n+]1cccc(C)c1.F[B-](F)(F)F [1-butyl-3-methylpyridinium tetrafluoroborate] + O
Settings	mass density, [1] [kg/m3]	molar heat capacity at constant pressure, [2] [J/K/mol]
293.15 K, x1 = 0.0015	–	76.7 ± 2.4
293.15 K, x1 = 0.002	–	77.4 ± 2.4
293.15 K, x1 = 0.0027	–	77.7 ± 2.4
293.15 K, x1 = 0.0036	–	78.1 ± 2.4
293.15 K, x1 = 0.0102	–	81 ± 2.5
293.15 K, x1 = 0.0494	1066 ± 3.9	–
293.15 K, x1 = 0.0938	–	112.7 ± 3.5
293.15 K, x1 = 0.0973	1095.9 ± 4.6	–
293.15 K, x1 = 0.1885	–	142.4 ± 4.4
293.15 K, x1 = 0.2312	1139.7 ± 5.7	–
293.15 K, x1 = 0.2704	–	167 ± 5.2
293.15 K, x1 = 0.3559	1157.3 ± 6.2	–
293.15 K, x1 = 0.362	–	193.8 ± 6
293.15 K, x1 = 0.4035	1161.8 ± 6.3	–
293.15 K, x1 = 0.4454	–	218.2 ± 6.8
293.15 K, x1 = 0.5195	1167.9 ± 6.5	–
293.15 K, x1 = 0.6432	–	275.2 ± 8.5
293.15 K, x1 = 0.7087	1179.5 ± 6.8	–
293.15 K, x1 = 0.7512	1181.2 ± 6.8	–
293.15 K, x1 = 0.8094	–	325.2 ± 10
293.15 K, x1 = 0.8791	–	346 ± 11
293.15 K, x1 = 0.8838	1183.2 ± 6.8	–
293.15 K, x1 = 0.9468	–	367.8 ± 11
293.15 K, x1 = 1	1188.6 ± 7	385.8 ± 12
298.15 K, x1 = 0.0015	–	76.7 ± 2.4
298.15 K, x1 = 0.002	–	77.4 ± 2.4
298.15 K, x1 = 0.0027	–	77.7 ± 2.4
298.15 K, x1 = 0.0036	–	78.2 ± 2.4
298.15 K, x1 = 0.0102	–	81.1 ± 2.5
298.15 K, x1 = 0.0494	1063.3 ± 3.8	–
298.15 K, x1 = 0.0938	–	113.1 ± 3.5
298.15 K, x1 = 0.0973	1092.7 ± 4.5	–
298.15 K, x1 = 0.1885	–	143.1 ± 4.4
298.15 K, x1 = 0.2312	1136 ± 5.6	–
298.15 K, x1 = 0.2704	–	167.8 ± 5.2
298.15 K, x1 = 0.3559	1153.6 ± 6.1	–
298.15 K, x1 = 0.362	–	195 ± 6
298.15 K, x1 = 0.4035	1158.2 ± 6.2	–
298.15 K, x1 = 0.4454	–	219.3 ± 6.8
298.15 K, x1 = 0.5195	1164.3 ± 6.4	–
298.15 K, x1 = 0.6432	–	276.9 ± 8.6
298.15 K, x1 = 0.7087	1176 ± 6.7	–
298.15 K, x1 = 0.7512	1177.8 ± 6.7	–
298.15 K, x1 = 0.8094	–	327.3 ± 10
298.15 K, x1 = 0.8791	–	348.3 ± 11
298.15 K, x1 = 0.8838	1179.8 ± 6.8	–
298.15 K, x1 = 0.9468	–	370.4 ± 12
298.15 K, x1 = 1	1185.2 ± 6.9	387.7 ± 12
303.15 K, x1 = 0.0015	–	76.8 ± 2.4
303.15 K, x1 = 0.002	–	77.5 ± 2.4
303.15 K, x1 = 0.0027	–	77.7 ± 2.4
303.15 K, x1 = 0.0036	–	78.2 ± 2.4
303.15 K, x1 = 0.0102	–	81.2 ± 2.5
303.15 K, x1 = 0.0494	1060.4 ± 3.7	–
303.15 K, x1 = 0.0938	–	113.4 ± 3.5
303.15 K, x1 = 0.0973	1089.4 ± 4.5	–
303.15 K, x1 = 0.1885	–	143.8 ± 4.5
303.15 K, x1 = 0.2312	1132.3 ± 5.5	–
303.15 K, x1 = 0.2704	–	168.6 ± 5.2
303.15 K, x1 = 0.3559	1150 ± 6	–
303.15 K, x1 = 0.362	–	196.1 ± 6.1
303.15 K, x1 = 0.4035	1154.5 ± 6.1	–
303.15 K, x1 = 0.4454	–	220.5 ± 6.8
303.15 K, x1 = 0.5195	1160.8 ± 6.3	–
303.15 K, x1 = 0.6432	–	278.6 ± 8.6
303.15 K, x1 = 0.7087	1172.5 ± 6.6	–
303.15 K, x1 = 0.7512	1174.3 ± 6.6	–
303.15 K, x1 = 0.8094	–	329.5 ± 10
303.15 K, x1 = 0.8791	–	350.8 ± 11
303.15 K, x1 = 0.8838	1176.3 ± 6.7	–
303.15 K, x1 = 0.9468	–	373 ± 12
303.15 K, x1 = 1	1181.7 ± 6.8	390.1 ± 12
308.15 K, x1 = 0.0015	–	76.9 ± 2.4
308.15 K, x1 = 0.002	–	77.6 ± 2.4
308.15 K, x1 = 0.0027	–	77.8 ± 2.4
308.15 K, x1 = 0.0036	–	78.3 ± 2.4
308.15 K, x1 = 0.0102	–	81.3 ± 2.5
308.15 K, x1 = 0.0494	1057.5 ± 3.6	–
308.15 K, x1 = 0.0938	–	113.8 ± 3.5
308.15 K, x1 = 0.0973	1086 ± 4.4	–
308.15 K, x1 = 0.1885	–	144.5 ± 4.5
308.15 K, x1 = 0.2312	1128.7 ± 5.5	–
308.15 K, x1 = 0.2704	–	169.5 ± 5.3
308.15 K, x1 = 0.3559	1146.4 ± 5.9	–
308.15 K, x1 = 0.362	–	197.3 ± 6.1
308.15 K, x1 = 0.4035	1150.9 ± 6	–
308.15 K, x1 = 0.4454	–	221.7 ± 6.9
308.15 K, x1 = 0.5195	1157.2 ± 6.2	–
308.15 K, x1 = 0.6432	–	280.3 ± 8.7
308.15 K, x1 = 0.7087	1169.1 ± 6.5	–
308.15 K, x1 = 0.7512	1170.8 ± 6.5	–
308.15 K, x1 = 0.8094	–	331.7 ± 10
308.15 K, x1 = 0.8791	–	353.3 ± 11
308.15 K, x1 = 0.8838	1172.9 ± 6.6	–
308.15 K, x1 = 0.9468	–	375.7 ± 12
308.15 K, x1 = 1	1178.3 ± 6.7	392.8 ± 12
313.15 K, x1 = 0.0015	–	77 ± 2.4
313.15 K, x1 = 0.002	–	77.6 ± 2.4
313.15 K, x1 = 0.0027	–	77.9 ± 2.4
313.15 K, x1 = 0.0036	–	78.4 ± 2.4
313.15 K, x1 = 0.0102	–	81.5 ± 2.5
313.15 K, x1 = 0.0494	1054.5 ± 3.6	–
313.15 K, x1 = 0.0938	–	114.2 ± 3.5
313.15 K, x1 = 0.0973	1082.5 ± 4.3	–
313.15 K, x1 = 0.1885	–	145.2 ± 4.5
313.15 K, x1 = 0.2312	1125 ± 5.4	–
313.15 K, x1 = 0.2704	–	170.4 ± 5.3
313.15 K, x1 = 0.3559	1142.7 ± 5.8	–
313.15 K, x1 = 0.362	–	198.4 ± 6.1
313.15 K, x1 = 0.4035	1147.3 ± 5.9	–
313.15 K, x1 = 0.4454	–	222.8 ± 6.9
313.15 K, x1 = 0.5195	1153.7 ± 6.1	–
313.15 K, x1 = 0.6432	–	282.1 ± 8.7
313.15 K, x1 = 0.7087	1165.6 ± 6.4	–
313.15 K, x1 = 0.7512	1167.4 ± 6.4	–
313.15 K, x1 = 0.8094	–	334 ± 10
313.15 K, x1 = 0.8791	–	355.8 ± 11
313.15 K, x1 = 0.8838	1169.5 ± 6.5	–
313.15 K, x1 = 0.9468	–	378.4 ± 12
313.15 K, x1 = 1	1174.9 ± 6.6	395.9 ± 12
318.15 K, x1 = 0.0015	–	77.1 ± 2.4
318.15 K, x1 = 0.002	–	77.7 ± 2.4
318.15 K, x1 = 0.0027	–	78 ± 2.4
318.15 K, x1 = 0.0036	–	78.4 ± 2.4
318.15 K, x1 = 0.0102	–	81.7 ± 2.5
318.15 K, x1 = 0.0494	1051.3 ± 3.5	–
318.15 K, x1 = 0.0938	–	114.7 ± 3.6
318.15 K, x1 = 0.0973	1079 ± 4.2	–
318.15 K, x1 = 0.1885	–	146 ± 4.5
318.15 K, x1 = 0.2312	1121.2 ± 5.3	–
318.15 K, x1 = 0.2704	–	171.4 ± 5.3
318.15 K, x1 = 0.3559	1139.1 ± 5.7	–
318.15 K, x1 = 0.362	–	199.5 ± 6.2
318.15 K, x1 = 0.4035	1143.7 ± 5.8	–
318.15 K, x1 = 0.4454	–	224 ± 6.9
318.15 K, x1 = 0.5195	1150.2 ± 6	–
318.15 K, x1 = 0.6432	–	283.8 ± 8.8
318.15 K, x1 = 0.7087	1162.2 ± 6.3	–
318.15 K, x1 = 0.7512	1163.9 ± 6.4	–
318.15 K, x1 = 0.8094	–	336.3 ± 10
318.15 K, x1 = 0.8791	–	358.5 ± 11
318.15 K, x1 = 0.8838	1166.1 ± 6.4	–
318.15 K, x1 = 0.9468	–	381.3 ± 12
318.15 K, x1 = 1	1171.6 ± 6.6	399.3 ± 12
